Reference: ChEMBL document CHEMBL5370642, “Synthesis and Bioevaluation of 3-(Arylmethylene)indole Derivatives: Discovery of a Novel ALK Modulator with Antiglioblastoma Activities” (J Med Chem, 2023)
Active and inactive are the calls of the source. The rule behind the calls is not given here.

What was measured:
GL261 [1] = assay: Induction of apoptosis in mouse GL261 cells assessed as increase in annexin-V+/PI- cells at 0.5 to 2 uM by flow cytometry; type: functional, cell-based; settings: dose 0.5-2 µM, time 24-72 hrs, TDE = time-dependent effect
GL261 [2] = assay: In vivo induction of apoptosis in mouse GL261 cells transfected with mRFP-GFPLC3 adenovirus allografted in C57BL/6J mouse model assessed as increase in cleaved PARP level in tumor tissue at 2.5 to 5 mg/kg, ip by immunofluorescence assay; type: functional, organism-based; settings: dose 2.5-5 mg/kg
[3] = Volume of distribution at steady state in C57BL6/J mouse at 5 mg/kg, iv measured upto 24 hrs by LC-MS/MS analysis; type: ADME, organism-based; settings: in vivo, read-out: Vdss
[4] = Drug uptake in C57BL6/J mouse brain at 20 mg/kg, ip measured after 2 hrs by LC-MS/MS analysis; type: ADME, organism-based; settings: in vivo
[5] = Half life in C57BL6/J mouse at 5 mg/kg, iv measured upto 24 hrs by LC-MS/MS analysis; type: ADME, organism-based; settings: in vivo
GL261 [6] = assay: Anti glioblastoma activity against mouse GL261-mNeonGreenLuc cells stereotaxically injected in corpus striatum of orthotopic glioblastoma mouse model assessed as inhibition of tumor growth at 5 mg/kg, ip once daily measured on day 21 by immunofluorescence imaging analysis; type: functional, organism-based
GL261 [7] = assay: Induction of apoptosis in mouse GL261 cells assessed as increase in cleaved caspase 3 level measured at 0.5 to 2 uM after 24 hrs by Western blot analysis; type: functional, cell-based; settings: dose 0.5-2 µM
GL261 [8] = assay: Anti glioblastoma activity against mouse GL261-mNeonGreenLuc cells stereotaxically injected in corpus striatum of orthotopic glioblastoma mouse model assessed as shrunken tumor tissue at 5 mg/kg, ip once daily measured on day 21 by H and E staining analysis; type: functional, organism-based
U-87 MG [9] = assay: Anti-proliferative activity against human U-87 MG cells assessed as decrease in cell viability incubated for 24 to 72 hrs by CCK8 assay; type: functional, cell-based; settings: U-87MG ATCC, dose 0.5-10 µM, time 24-72 hrs
[10] = molecular target: ALK tyrosine kinase receptor (Mus musculus) (UniProt P97793); assay: Binding affinity to ALK in mouse GL261 cell lysate assessed as immunoprecipitation measured after overnight incubation by pull-down assay; type: subcellular
GL261 [11] = assay: Induction of mitochondrial membrane potential loss in mouse GL261 cells at 0.5 to 2 uM incubated for 24 hrs by JC-1 staining based flow cytometry assay; type: functional, cell-based; settings: dose 0.5-2 µM
GL261 [12] = assay: Induction of apoptosis in mouse GL261 cells assessed as increase in cleaved PARP level measured at 0.5 to 2 uM after 24 hrs by Western blot analysis; type: functional, cell-based; settings: dose 0.5-2 µM
GL261 [13] = assay: Anti-proliferative activity against mouse GL261 cells assessed as cell viability incubated for 2 hrs by CCK8 assay; type: functional, cell-based; settings: GL261, 2 h
[14] = MRT (0 to 8hrs) in C57BL6/J mouse at 5 mg/kg, iv measured upto 24 hrs by LC-MS/MS analysis; type: ADME, organism-based; settings: in vivo
Mus musculus = assay: Anti glioblastoma activity against mouse GL261-mNeonGreenLuc cells stereotaxically injected in corpus striatum of orthotopic glioblastoma mouse model assessed as increase in survival rate at 5 mg/kg, ip once daily measured on day 21; type: functional, organism-based
[15] = molecular target: T1, ALK tyrosine kinase receptor (Homo sapiens, UniProt Q9UM73); settings: U-87 MG, dose 0.5-2 µM, time 24.0 hrs
Target sequence in this assay (Q9UM73 19-1620 limits assumed): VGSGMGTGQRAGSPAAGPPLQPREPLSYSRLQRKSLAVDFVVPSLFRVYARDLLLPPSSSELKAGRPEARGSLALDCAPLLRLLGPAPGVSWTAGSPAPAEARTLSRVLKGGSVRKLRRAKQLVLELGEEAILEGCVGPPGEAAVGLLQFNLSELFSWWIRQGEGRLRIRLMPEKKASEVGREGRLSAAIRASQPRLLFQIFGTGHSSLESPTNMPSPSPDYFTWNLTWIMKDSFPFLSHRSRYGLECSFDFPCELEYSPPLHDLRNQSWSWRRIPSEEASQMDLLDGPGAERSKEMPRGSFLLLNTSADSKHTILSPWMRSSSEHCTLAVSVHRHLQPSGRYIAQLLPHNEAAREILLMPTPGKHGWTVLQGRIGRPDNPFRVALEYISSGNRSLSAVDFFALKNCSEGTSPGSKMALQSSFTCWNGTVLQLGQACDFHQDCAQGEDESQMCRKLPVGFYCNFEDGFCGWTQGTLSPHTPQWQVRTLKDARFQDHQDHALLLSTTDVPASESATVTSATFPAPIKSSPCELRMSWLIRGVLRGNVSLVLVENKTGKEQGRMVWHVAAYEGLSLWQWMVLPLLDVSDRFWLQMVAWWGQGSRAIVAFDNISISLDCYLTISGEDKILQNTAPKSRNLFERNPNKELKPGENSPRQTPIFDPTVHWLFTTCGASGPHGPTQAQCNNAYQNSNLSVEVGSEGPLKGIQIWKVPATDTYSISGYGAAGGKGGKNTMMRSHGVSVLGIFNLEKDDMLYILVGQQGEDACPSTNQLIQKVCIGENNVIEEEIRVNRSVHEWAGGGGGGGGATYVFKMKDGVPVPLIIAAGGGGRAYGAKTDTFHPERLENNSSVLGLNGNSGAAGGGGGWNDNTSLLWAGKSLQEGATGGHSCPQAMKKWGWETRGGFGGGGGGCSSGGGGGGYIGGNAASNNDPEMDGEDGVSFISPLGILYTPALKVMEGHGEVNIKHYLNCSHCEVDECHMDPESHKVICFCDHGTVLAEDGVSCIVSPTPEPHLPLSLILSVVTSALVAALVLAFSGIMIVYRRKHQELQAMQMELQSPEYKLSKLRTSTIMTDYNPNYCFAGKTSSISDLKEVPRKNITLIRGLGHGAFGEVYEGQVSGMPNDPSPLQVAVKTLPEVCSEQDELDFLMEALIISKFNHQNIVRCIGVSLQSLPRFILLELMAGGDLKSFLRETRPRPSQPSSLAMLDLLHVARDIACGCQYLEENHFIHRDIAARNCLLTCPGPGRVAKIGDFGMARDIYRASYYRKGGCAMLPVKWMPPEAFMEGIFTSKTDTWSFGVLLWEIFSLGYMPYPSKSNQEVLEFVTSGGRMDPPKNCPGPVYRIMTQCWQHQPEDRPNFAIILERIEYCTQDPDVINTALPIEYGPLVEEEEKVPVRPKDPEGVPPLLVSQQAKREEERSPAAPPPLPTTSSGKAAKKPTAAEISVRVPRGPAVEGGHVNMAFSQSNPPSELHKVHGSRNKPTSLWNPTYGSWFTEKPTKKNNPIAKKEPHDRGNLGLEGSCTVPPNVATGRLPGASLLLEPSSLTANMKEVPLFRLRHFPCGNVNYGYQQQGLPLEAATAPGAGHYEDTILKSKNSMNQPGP

[16] = MRT (0 to infinity) in C57BL6/J mouse at 5 mg/kg, iv measured upto 24 hrs by LC-MS/MS analysis; type: ADME, organism-based; settings: in vivo
GL261 [17] = assay: Anti-proliferative activity against mouse GL261 cells assessed as inhibition rate at 2 uM incubated for 72 hrs by CCK8 assay relative to control; type: functional
[18] = Half life in C57BL6/J mouse at 5 mg/kg, ip measured upto 24 hrs by LC-MS/MS analysis; type: ADME, organism-based; settings: in vivo
GL261 [19] = assay: Induction of cell cycle arrest in mouse GL261 cells assessed as accumulation of cells at S phase at 0.5 to 2 uM incubated for 24 to 72 hrs by flow cytometry; type: functional; settings: dose 0.5-2 µM, time 24-72 hrs
GL261 [20] = assay: Induction of autophagy in mouse GL261 cells transfected with mRFP-GFPLC3 adenovirus assessed as yellow fluorescence at 2 uM incubated for 48 hrs by confocal microscopy; type: functional, cell-based
[21] = molecular target: ALK tyrosine kinase receptor (Mus musculus) (UniProt P97793); assay: Inhibition of ALK phosphorylation in mouse GL261 cells at 0.5 to 2 uM incubated for 24 hrs by Western blot analysis; type: cell-based; settings: dose 0.5-2 µM
GL261 [22] = assay: Induction of autophagy in mouse GL261 cells transfected with mRFP-GFPLC3 adenovirus assessed as yellow fluorescence pretreated with CQ for 30 mins followed by treated at 2 uM measured after 48 hrs by confocal microscopy; type: functional, cell-based
[23] = molecular target: T1, ALK tyrosine kinase receptor; assay: Inhibition of human ALK using GF-IRtide as substrate by Kinase-Glo Plus luminescence kinase assay
Target sequence in this assay (Q9UM73 whole entry): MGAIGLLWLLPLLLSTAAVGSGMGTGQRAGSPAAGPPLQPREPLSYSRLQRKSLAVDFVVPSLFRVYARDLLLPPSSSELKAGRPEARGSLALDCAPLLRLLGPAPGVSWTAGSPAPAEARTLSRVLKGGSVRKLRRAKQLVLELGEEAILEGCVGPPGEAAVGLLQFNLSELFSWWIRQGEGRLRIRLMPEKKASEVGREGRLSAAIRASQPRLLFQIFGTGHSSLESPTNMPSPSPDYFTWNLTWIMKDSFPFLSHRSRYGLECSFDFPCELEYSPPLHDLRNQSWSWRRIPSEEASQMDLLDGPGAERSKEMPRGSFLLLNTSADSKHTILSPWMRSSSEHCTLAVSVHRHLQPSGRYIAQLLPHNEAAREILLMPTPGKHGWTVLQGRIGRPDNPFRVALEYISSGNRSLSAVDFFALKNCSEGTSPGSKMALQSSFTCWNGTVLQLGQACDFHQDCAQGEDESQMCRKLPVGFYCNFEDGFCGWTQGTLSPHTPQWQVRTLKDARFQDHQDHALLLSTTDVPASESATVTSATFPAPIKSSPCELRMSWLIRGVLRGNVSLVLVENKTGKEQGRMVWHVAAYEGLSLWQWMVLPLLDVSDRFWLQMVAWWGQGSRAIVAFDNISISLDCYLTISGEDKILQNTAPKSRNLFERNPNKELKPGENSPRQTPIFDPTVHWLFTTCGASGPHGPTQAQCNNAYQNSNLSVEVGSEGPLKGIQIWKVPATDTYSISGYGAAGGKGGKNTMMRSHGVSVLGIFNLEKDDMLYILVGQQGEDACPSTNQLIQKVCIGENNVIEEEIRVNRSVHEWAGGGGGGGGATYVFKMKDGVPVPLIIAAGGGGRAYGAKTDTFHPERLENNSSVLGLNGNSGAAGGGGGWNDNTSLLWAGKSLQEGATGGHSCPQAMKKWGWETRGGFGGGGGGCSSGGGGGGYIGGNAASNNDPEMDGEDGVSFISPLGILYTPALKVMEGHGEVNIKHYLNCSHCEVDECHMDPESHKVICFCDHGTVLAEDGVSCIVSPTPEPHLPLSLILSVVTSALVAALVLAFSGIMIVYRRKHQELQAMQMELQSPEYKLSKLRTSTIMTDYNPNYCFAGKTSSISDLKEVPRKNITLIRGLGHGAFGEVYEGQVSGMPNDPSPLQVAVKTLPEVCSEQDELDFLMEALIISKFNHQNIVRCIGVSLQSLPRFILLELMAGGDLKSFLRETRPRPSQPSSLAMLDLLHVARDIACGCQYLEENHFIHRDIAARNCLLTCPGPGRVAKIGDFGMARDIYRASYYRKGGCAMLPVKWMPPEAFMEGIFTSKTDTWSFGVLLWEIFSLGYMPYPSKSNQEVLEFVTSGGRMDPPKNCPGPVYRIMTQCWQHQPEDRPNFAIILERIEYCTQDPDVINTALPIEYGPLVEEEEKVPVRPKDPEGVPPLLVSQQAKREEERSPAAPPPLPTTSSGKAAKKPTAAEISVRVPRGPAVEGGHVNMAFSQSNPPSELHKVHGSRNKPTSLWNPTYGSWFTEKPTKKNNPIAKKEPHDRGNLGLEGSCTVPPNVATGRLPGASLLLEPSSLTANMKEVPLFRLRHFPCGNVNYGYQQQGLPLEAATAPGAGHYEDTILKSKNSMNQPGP

[24] = Cmax in C57BL6/J mouse at 5 mg/kg, iv measured upto 24 hrs by LC-MS/MS analysis; type: ADME, organism-based; set-up: dose 5 mg/kg, time < 24 hrs, route iv; settings: in vivo
GL261 [25] = assay: Induction of apoptosis in mouse GL261 cells assessed as necrotic cells measured at 0.5 to 2 uM after 72 hrs by flow cytometry; type: functional, cell-based; settings: dose 0.5-2 µM
GL261 [26] = assay: Induction of cell cycle arrest in mouse GL261 cells assessed as accumulation at S phase at 1 uM incubated for 72 hrs by flow cytometry (reference value: 13.9%); type: functional, cell-based
[27] = molecular target: T1, ALK tyrosine kinase receptor; settings: U-87 MG, dose 0.5-2 µM, time 24.0 hrs; remark: listed apart in the source
Target sequence in this assay (Q9UM73 19-1620 limits assumed): as the sequence (Q9UM73 19-1620 limits assumed) above

[28] = Bioavailability in C57BL6/J mouse at 5 mg/kg, […] measured upto 24 hrs by LC-MS/MS analysis; type: ADME, organism-based; settings: in vivo
[29] = Apparent volume of distribution in C57BL6/J mouse at 5 mg/kg, iv measured upto 24 hrs by LC-MS/MS analysis; type: ADME, organism-based; settings: in vivo, read-out: Vz
GL261 [30] = assay: Induction of autophagy in mouse GL261 cells assessed as increase in LC3BII levels at 0.5 to 2 uM incubated for 24 hrs by Western blot analysis; type: functional, cell-based; settings: dose 0.5-2 µM
[31] = Cmax in C57BL6/J mouse at 5 mg/kg, ip measured upto 24 hrs by LC-MS/MS analysis; type: ADME, organism-based; set-up: time < 24 hrs, dose 5 mg/kg, route ip; settings: in vivo
U-87 MG [32] = assay: Anti-proliferative activity against human U-87 MG cells assessed as cell viability incubated for 2 hrs by CCK8 assay; type: functional, cell-based, U-87MG ATCC
GL261 [33] = assay: Induction of autophagy in mouse GL261 cells assessed as decrease in mTOR phosphorylation at 0.5 to 2 uM incubated for 24 hrs by Western blot analysis; type: functional, cell-based; settings: dose 0.5-2 µM
HeLa = assay: Anti-proliferative activity against human HeLa cells assessed as inhibition rate at 160 uM incubated for 24 to 72 hrs by CCK8 assay relative to control; type: functional; settings: time 24-72 hrs
GL261 [34] = assay: In vivo induction of apoptosis in mouse GL261 cells transfected with mRFP-GFPLC3 adenovirus allografted in C57BL/6J mouse model assessed as increase in cleaved caspase 3 level in tumor tissue at 2.5 to 5 mg/kg, ip by immunofluorescence assay; type: functional, organism-based; settings: dose 2.5-5 mg/kg
[35] = MRT (0 to infinity) in C57BL6/J mouse at 5 mg/kg, ip measured upto 24 hrs by LC-MS/MS analysis; type: ADME, organism-based; settings: in vivo

Sequence of ALK tyrosine kinase receptor (Mus musculus) (P97793 whole entry): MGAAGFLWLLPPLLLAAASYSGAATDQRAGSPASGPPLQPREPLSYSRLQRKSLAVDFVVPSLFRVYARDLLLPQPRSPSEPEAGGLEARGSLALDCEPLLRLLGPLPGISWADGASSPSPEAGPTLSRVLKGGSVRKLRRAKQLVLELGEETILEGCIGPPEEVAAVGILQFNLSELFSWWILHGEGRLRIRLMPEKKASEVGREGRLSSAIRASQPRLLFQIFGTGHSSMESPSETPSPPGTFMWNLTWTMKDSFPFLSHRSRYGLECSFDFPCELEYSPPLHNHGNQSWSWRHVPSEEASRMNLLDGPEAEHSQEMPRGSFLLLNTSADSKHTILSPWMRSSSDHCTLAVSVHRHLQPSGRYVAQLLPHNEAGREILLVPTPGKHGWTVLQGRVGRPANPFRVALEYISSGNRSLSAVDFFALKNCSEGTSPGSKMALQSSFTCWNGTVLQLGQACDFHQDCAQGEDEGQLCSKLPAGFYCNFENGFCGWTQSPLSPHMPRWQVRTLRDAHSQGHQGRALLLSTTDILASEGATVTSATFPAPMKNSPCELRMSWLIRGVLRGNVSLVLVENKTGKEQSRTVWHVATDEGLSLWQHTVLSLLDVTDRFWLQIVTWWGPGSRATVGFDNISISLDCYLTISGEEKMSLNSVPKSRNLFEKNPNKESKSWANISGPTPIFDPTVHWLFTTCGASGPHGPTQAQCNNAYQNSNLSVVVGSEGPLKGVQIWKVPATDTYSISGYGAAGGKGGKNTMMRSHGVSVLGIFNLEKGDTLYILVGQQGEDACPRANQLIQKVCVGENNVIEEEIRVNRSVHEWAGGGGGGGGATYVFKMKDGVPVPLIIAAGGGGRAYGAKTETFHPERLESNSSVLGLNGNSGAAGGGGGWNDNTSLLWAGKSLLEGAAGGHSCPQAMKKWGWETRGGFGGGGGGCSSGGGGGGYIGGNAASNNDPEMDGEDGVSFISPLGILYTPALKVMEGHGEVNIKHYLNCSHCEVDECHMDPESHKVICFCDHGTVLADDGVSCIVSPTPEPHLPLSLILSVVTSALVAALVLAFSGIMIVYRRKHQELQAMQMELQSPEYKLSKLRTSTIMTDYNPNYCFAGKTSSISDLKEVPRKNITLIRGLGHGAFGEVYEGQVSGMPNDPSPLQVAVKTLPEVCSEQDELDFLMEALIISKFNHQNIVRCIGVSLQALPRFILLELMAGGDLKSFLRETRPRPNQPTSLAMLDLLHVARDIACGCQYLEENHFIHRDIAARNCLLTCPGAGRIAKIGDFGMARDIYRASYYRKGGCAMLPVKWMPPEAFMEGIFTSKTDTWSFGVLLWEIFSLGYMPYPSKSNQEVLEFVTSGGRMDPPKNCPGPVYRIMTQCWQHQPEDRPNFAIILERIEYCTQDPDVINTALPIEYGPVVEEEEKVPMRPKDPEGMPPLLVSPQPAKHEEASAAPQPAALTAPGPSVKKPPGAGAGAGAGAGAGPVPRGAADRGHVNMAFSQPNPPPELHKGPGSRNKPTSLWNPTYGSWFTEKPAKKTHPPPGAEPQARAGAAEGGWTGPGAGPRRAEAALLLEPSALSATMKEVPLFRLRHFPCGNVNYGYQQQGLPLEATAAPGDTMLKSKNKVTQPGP

- Vd [3]: 4.59 L/kg
- Drug uptake [4]: 2.7 µmol/kg
- half-life [5]: 1.13 h
- Activity [10]: Active
- MRT last at 24 h [14]: 0.63 h
- inhibition [15]: Active
- MRT inf [16]: 0.84 h
- half-life [18]: 3.55 h
- inhibition [21]: Active
- IC50 [23]: 7 µM
- Cmax [24]: 1980 ng/mL
- inhibition [27]: Active
- bioavailability [28]: 38.4%
- Vd [29]: 8.89 L/kg
- Cmax [31]: 118 ng/mL
- IC50 (U-87 MG [32]): 7.25 µM
- MRT inf [35]: 4.6 h
SMILES: Cc1ccc(S(=O)(=O)n2cc(Cc3cc(C)c(O)c(C)c3)c3ccccc32)cc1
- Activity (GL261 [1]): Tde
- Activity (GL261 [2]): Active
- inhibition (GL261 [6]): Active
- Activity (GL261 [7]): Active
- Activity (GL261 [8]): Active
- Activity (U-87 MG [9]): Dose-Dependent Effect
- Activity (GL261 [11]): Active
- Activity (GL261 [12]): Active
- IC50 (GL261 [13]): 1.35 µM
- Activity (Mus musculus): Active
- inhibition at 2 µM (GL261 [17]): 80%
- Activity (GL261 [19]): 24.5%
- Activity (GL261 [20]): Active
- Activity (GL261 [22]): inactive
- Activity (GL261 [25]): Active
- Activity (GL261 [26]): Active
- Activity (GL261 [30]): Active
- Activity (GL261 [33]): Active
- inhibition at 160 µM (HeLa): 50%
- Activity (GL261 [34]): Active
